# Legend:
# p21^Waf1/Cip1 in Calu-3 = assay: p21Waf1/Cip1 expression; assay type: cell-based, human
# Description: SN-38 is known to activate several signaling pathways in cells, leading to apoptosis (e.g., Cusack et al., 2001, Cancer Res 61:3535-40; Liu et al. 2009, Cancer Lett 274:47-53; Lagadec et al., 2008, Br J Cancer 98:335-44). Our initial studies examined the expression of 2 proteins involved in early signaling events (p21^Waf1/Cip1 and p53) and 1 late apoptotic event [cleavage of poly-ADP-ribose polymerase (PARP)] in vitro (not shown).
# [1] = tested on: diverse metastatic solid cancers; assay: Phase I/II clinical trial of IMMU-132, all tumor types; assay type: in vivo, human
# Method: Dose escalation followed a standard 3+3 scheme with 4 planned dose levels and dose delay or reduction allowed. Twenty-five patients (52-60 years old, 3 median prior chemotherapy regimens) were treated at dose levels of 8 (N=7), 10 (N=6), 12 (N=9), and 18 (N=3) mg/kg. […] Lower doses were acceptable for extended treatment with no treatment-related grade 4 toxicities and grade 3 toxicities limited to fatigue (N=3), neutropenia (N=2), diarrhea (N=1), and leukopenia (N=1). […] No pre-selection of patients based on tumor Trop-2 expression was undertaken.
# The trial was designed as a standard 3+3 Phase I design, starting at a dose of 8 mg/kg per injection, with dosages given weekly for 2 weeks in a 3-week treatment cycle.
# Prior to the start of each infusion, most patients received acetaminophen, anti-histamines (H1 and H2 blockers), and dexamethasone. Prophylactic use of antiemetics or anti-diarrheal medications was prohibited. Therapy consisted of 2 consecutive doses given on days 1 and 8 of a 3-week treatment cycle, with the intent to allow patients to continue treatment for up to 8 cycles (i.e., 16 treatments) unless there was unacceptable toxicity or progression. Patients showing disease stabilization or response after 8 cycles could continue treatments.
# [2] = tested on: triple-negative breast cancer; assay: Phase I/II clinical trial of IMMU-132, TNBC; assay type: in vivo, human
# Description: […] […] Previous treatments included cyclophosphamide, doxorubicin, carboplatin, gemcitabine, capecitabine, eribulin, cisplatinum, anastrozole, vinorelbine, bevacizumab and tamoxifen. […] The median time to progression in this heavily pretreated population of TNBC patients was 9.4 months, with a range of 2.9 to 14.2 months to date. However, 72% of patients in the study were still ongoing treatment.
# HCC1395 (Trop-2−) = assay: dsDNA breaks, rH2AX flow cytometry; assay type: cell-based, human; settings: untreated baseline 122
# Method: For drug activity testing, HCC1806 and HCC1395 TNBC cell lines cells were seeded in 6-well plates at 5×10^5 cells/well and held at 37° C. overnight. […] The signal intensity of rH2AX was measured by flow cytometry using a BD FACSCalibur (BD Biosciences, San Jose, Calif.).
# The cells were then washed to remove unbound conjugate, and then incubated overnight at 37° C.
# [3] = tested on: p21^WAF1/Cip1 in MDA-MB-468; assay: immunoblotting of apoptotic pathway; assay type: cell-based, human; settings: by 48 h
# Method: Cells (2×10^6) were plated in 6-well plates overnight. […] Parental hRS7 was used as a control for the ADC.
substance,measurement,setting,value
IMMU-132,p21^Waf1/CiP1 expression over free SN-38,p21^Waf1/Cip1 in Calu-3,more than 2 fold
same,duration of maintained disease control,[1]; 12 patients,16-36 weeks
same,long-term stable disease,"[1]; 24 assessable patients, Phase I",Over 80%
same,disease response,[1]; 48 assessable patients (excluding PDC),79%
same,"TTP, range",[1]; 48 patients,6.0 to 51.4 wks
same,time to progression (TTP),[1]; 48 patients,≥ 12.6 wks
same,patients with partial response,"[1]; Phase I, 25 patients",3
same,patients with progression (PD),"[1]; Phase I, 25 patients",7
same,patients with stable disease,"[1]; Phase I, 25 patients",15
same,responses or disease stabilization after prior topoisomerase I inhibitor,"[1]; human, in vivo",7 of 9
same,PD,[1]; of 48 assessable patients,14
same,PR,[1]; of 48 assessable patients,7
same,confirmed complete responses (CR),[2]; 10 mg/kg,2
same,partial responses (PR),[2]; 10 mg/kg,13
same,"time to progression, range",[2]; 10 mg/kg,2.9 to 14.2 months
same,clinical benefit rate (PR+SD>6 months),[2]; 17 TNBC patients,46%
same,PD,[2]; of 8 assessable patients,2
same,PR,[2]; of 8 assessable patients,2
same,Median fluorescence intensity (rH2AX),HCC1395 (Trop-2−),123
same,decrease of p21^WAF1/Cip1,[3],43%

# Reference: patent publication US10954305B2 (Immunomedics, Inc., priority 2016, dated 2021)
